Measured values published in US12479847B2 (DANA-FARBER CANCER INSTITUTE, INC., priority 2019, dated 2025).

How the values were obtained:
Assay in all cases: KINOMEscan (ScanMAX) kinase profiling
Assay type in all cases: binding
[1] = biological target: T1, panel of 468 kinases (Homo sapiens, UniProt O00444); settings: PLK4; 1 μM; read-out: % control
T1 construct: purchased KINOMEscan (ScanMAX) service
T1 sequence (O00444 1-970): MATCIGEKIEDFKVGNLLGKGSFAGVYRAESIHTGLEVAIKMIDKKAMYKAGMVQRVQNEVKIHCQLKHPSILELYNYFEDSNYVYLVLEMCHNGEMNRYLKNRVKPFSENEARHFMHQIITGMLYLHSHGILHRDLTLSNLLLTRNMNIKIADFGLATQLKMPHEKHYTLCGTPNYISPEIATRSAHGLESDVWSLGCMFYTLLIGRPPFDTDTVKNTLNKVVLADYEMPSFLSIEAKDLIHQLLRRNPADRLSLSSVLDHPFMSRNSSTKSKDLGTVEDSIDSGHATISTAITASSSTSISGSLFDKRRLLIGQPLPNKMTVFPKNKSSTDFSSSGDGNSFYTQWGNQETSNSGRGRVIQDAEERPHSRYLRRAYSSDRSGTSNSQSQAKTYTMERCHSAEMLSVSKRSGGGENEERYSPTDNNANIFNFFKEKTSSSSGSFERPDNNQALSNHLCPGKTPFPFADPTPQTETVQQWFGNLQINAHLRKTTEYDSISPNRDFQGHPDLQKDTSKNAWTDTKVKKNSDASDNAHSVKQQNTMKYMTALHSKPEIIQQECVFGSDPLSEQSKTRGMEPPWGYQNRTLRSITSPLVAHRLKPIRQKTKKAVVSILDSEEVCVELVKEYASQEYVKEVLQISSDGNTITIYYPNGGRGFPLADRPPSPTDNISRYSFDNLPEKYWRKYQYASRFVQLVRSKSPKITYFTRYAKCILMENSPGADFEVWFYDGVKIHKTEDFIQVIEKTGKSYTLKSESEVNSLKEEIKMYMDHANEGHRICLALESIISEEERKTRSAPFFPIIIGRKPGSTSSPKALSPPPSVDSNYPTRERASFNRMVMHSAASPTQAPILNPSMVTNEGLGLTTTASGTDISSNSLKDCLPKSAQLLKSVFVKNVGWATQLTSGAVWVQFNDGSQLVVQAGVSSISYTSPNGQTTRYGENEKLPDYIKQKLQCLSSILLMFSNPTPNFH

[2] = biological target: T2, panel of 468 kinases (Homo sapiens, UniProt Q9UPZ9); settings: ICK; 1 μM; read-out: % control
T2 construct: purchased KINOMEscan (ScanMAX) service
T2 sequence (Q9UPZ9 1-632): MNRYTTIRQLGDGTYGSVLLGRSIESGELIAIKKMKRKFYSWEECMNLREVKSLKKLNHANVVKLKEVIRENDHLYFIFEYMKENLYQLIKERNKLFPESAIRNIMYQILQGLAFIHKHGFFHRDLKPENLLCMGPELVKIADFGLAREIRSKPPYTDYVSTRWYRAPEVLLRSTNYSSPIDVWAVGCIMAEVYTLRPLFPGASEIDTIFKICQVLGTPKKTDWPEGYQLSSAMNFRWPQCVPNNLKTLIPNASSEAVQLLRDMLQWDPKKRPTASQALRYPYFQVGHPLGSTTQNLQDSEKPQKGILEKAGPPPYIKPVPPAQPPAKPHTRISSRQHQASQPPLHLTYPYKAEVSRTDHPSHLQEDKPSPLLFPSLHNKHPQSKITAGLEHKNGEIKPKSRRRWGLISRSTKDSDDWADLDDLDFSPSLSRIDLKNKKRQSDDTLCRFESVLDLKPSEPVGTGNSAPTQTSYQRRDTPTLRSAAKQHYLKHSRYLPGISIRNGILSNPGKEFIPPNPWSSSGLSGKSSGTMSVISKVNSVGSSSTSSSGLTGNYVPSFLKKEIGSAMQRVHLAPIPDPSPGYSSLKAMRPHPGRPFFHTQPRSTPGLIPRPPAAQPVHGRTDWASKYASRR

[3] = biological target: T3, panel of 468 kinases (Homo sapiens, UniProt Q9UEW8); settings: STK39; 1 μM; read-out: % control
T3 construct: purchased KINOMEscan (ScanMAX) service

[4] = biological target: T4, panel of 468 kinases (Homo sapiens, UniProt O95747); settings: OSR1; 1 μM; read-out: % control
T4 construct: purchased KINOMEscan (ScanMAX) service

[5] = biological target: T5, panel of 468 kinases (Homo sapiens, UniProt O14757); settings: CHEK1; 1 μM; read-out: % control
T5 construct: purchased KINOMEscan (ScanMAX) service
T5 sequence (O14757 1-476): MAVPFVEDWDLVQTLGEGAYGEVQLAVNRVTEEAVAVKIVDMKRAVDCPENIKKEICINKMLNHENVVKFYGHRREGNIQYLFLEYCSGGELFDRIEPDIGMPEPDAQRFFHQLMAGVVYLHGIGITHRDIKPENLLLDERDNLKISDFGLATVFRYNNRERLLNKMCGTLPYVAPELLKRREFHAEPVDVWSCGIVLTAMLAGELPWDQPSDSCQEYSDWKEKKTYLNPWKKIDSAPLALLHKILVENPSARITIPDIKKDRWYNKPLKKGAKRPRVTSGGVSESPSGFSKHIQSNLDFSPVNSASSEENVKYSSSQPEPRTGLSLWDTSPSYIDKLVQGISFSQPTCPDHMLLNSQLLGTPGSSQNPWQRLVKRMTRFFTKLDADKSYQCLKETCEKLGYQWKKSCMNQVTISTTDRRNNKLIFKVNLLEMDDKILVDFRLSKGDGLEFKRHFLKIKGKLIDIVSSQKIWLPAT

T4 sequence (O95747 whole entry): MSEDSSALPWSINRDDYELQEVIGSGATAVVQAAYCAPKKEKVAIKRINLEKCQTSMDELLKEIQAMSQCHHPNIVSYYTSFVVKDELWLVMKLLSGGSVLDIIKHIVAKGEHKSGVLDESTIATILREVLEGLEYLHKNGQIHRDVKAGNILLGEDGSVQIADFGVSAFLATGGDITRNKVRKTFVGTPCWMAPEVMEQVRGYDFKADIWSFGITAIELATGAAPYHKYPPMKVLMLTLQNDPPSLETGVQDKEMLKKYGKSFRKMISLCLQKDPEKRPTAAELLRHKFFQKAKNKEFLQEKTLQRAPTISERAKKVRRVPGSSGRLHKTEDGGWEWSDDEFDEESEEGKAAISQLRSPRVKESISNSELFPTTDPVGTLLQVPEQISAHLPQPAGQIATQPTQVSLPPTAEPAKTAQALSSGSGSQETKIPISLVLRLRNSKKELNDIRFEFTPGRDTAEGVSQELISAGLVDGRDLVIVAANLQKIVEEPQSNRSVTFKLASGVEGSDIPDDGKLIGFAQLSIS

SMILES | remaining binding at 1 µM [1] [%] | remaining binding at 1 µM [2] [%] | remaining binding at 1 µM [3] [%] | remaining binding at 1 µM [4] [%] | remaining binding at 1 µM [5] [%]
CNc1nc(Nc2ccc(S(=O)(=O)N3CCC(N4CCOCC4)CC3)cc2OC)nc2[nH]cc(Cl)c12 [Compound 12, 5-chloro-N2-(2-methoxy-4-((4-morpholinopiperidin-1-yl)sulfonyl)phenyl)-N4-methyl-7H-pyrrolo[2,3-d]pyrimidine-2,4-diamine] | 22 | 77 | 4.8 | 31 | 100
CNc1nc(Nc2ccc(P3(=O)CCN(C4CCOCC4)CC3)cc2OC)nc2[nH]cc(Cl)c12 [Compound 77, 4-(4-((5-chloro-4-(methylamino)-7H-pyrrolo[2,3-d]pyrimidin-2-yl)amino)-3-methoxyphenyl)-1-(tetrahydro-2H-pyran-4-yl)-1,4-azaphosphinane 4-oxide] | 15 | 85 | 0.5 | 10 | 100
CNc1nc(Nc2ccc(C(=O)N3CCC(N4CCOCC4)CC3)c3c2OCO3)nc2[nH]cc(Cl)c12 [Compound 75, (7-((5-chloro-4-(methylamino)-7H-pyrrolo[2,3-d]pyrimidin-2-yl)amino)benzo[d][1,3]dioxol-4-yl)(4-morpholinopiperidin-1-yl)methanone] | 9.6 | 89 | 5.4 | 24 | 67
